Here are results for four compounds from patent EP3928775A1, “USE OF ANTI[…] FOR TREATING THE COVID-19 DISEASE” (priority 2020, dated 2021).

Structures are written as SMILES. Where two headings read alike, the source gives them in different places.

Test [1] concerns Covid-19. The test is classed as in vivo, human.
Test [2] has as its system SARS-CoV-2. The following applies: in-vitro study, reference 11; cited from earlier work.
[3] abbreviates: Patients admitted to the hospital with Covid-19, exposed vs not exposed.

In the case of `CN(C)CCC[C@@]1(c2ccc(F)cc2)OCc2cc(C#N)ccc21` [Escitalopram], in test [1] (setting [3]), the “risk of intubation or death (in words)” value was “significantly and substantially reduced”. For the same compound, in test [2], the “antiviral effects on SARS-CoV-2” value is recorded as “has not be observed”.
Regarding `COc1ccc(C(CN(C)C)C2(O)CCCCC2)cc1` (stereo not drawn) [Venlafaxine], the “risk of intubation or death (in words)” value in test [1] (setting [3]) is “significantly and substantially reduced”.
`CNCCC(Oc1ccc(C(F)(F)F)cc1)c1ccccc1` (stereo not drawn) [Fluoxetine]: the “risk of intubation or death (in words)” value in test [1] (in vivo) is “significantly and substantially reduced”. The “antiviral effects on SARS-CoV-2” value in test [2] is listed as “antiviral effects”.
On to `Fc1ccc([C@@H]2CCNC[C@H]2COc2ccc3c(c2)OCO3)cc1` [Paroxetine], for which the “antiviral effects on SARS-CoV-2” value in test [2] is given as “has not be observed”.
